Tests used:
[1] = test system: murine E^d MHC class II allele; assay: simultaneous assay, E^d allele (A20 APC, G28.C9 T hybridoma, HEL106-116; HT-2 [3H]TdR readout); format: cell-based; conditions: simultaneous assay, Table 14, versus AE114 / AE301; E^d and E^k
Method: Examples 1-4 (Tables 1-18) will be briefly considered in order to establish the concept of tolerance discussed above. These examples describe experimental results observed in the so-called “simultaneous” assay. In the simultaneous assay four principle components are cultured together for a 24 hour period. […] The degree of stimulation of that second, indicator cell by the interleukins which had been released from the activated T cell hybridoma in the primary culture is measured by quantitating tritiated thymidine deoxyribose {[^3H]TdR} uptake into the DNA of the HT-2 indicator cells of that second culture.
In the “simultaneous assay” the four components of the assay are cultured together for a 24 h period. […] The degree of stimulation of that second, indicator cell by the interleukins which had been released from the activated T cell hybridoma in the primary culture is measured by quantitating tritiated thymidine deoxyribose {[^3H]TdR} uptake into the DNA of the HT-2 indicator cells of that second culture. […]

HLA-DR1 molecules = assay: exchange of biotinylated hMBP(90-102) into antigenic peptide-loaded HLA-DR1 (assay III); format: binding, human; conditions: Table 38; HLA-DR1 preloaded with unlabeled hMBP(90-102) 50 μM; exchange with biotin-labeled hMBP(90-102) 50 μM, 37° C., 1 h; fraction of positive control o.d.; no enhancement = 0.08
[2] = molecular target: T1, murine E^d MHC class II allele (Mus musculus, UniProt P01904+P01915); assay: AE101 series peptide prepulse assay, E^d allele; format: cell-based; conditions: Table 35; AE101 series peptide prepulse 64 μM; antigenic peptide 0.3 μM; supernatant dilution 1:4
T1 sequence (P01904 26-255): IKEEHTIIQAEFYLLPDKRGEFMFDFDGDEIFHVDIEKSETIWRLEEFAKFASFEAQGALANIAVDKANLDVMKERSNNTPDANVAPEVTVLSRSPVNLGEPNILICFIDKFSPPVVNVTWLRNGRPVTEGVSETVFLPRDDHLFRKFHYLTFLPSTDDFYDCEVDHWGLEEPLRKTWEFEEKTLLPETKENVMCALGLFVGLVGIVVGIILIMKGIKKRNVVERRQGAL
T1 sequence (P01915 27-264 limits assumed): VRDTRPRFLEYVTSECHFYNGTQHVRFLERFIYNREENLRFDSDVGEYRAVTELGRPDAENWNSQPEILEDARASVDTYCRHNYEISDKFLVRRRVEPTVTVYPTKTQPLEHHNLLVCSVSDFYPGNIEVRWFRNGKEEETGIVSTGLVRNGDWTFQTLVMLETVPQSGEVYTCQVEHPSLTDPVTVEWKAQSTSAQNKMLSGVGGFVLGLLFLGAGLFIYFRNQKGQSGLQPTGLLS
Method: (§1) Table 35: Activities of multiple substitution analogs of AE235, targeting the E^k and E^d allele, in an AE101 series peptide prepulse assay. In this assay the concentration of AE101 series peptides used during the prepulse was 64 μM. The concentrations of antigenic peptides were 0.3 μM for Ed and 0.4 μM for E^k. The supernatant dilutions taken into the HT-2 cell assay was 1:4 for E and 1:2 for E^k. The AE381 peptide is a head-to-tail cyclization: the amino terminal amino group is coupled through an amide linkage to the carboxyl terminal group. The AE 382 peptide is a side-to-tail cyclization: the epsilon amino group of Lys^4 is coupled through an amide linkage to the carboxyl terminal group.
(§2) AE101 series peptide prepulse assays were carried out in the E^d and E^k systems as described for simultaneous competition assays with the following modifications. Fixed APC were first incubated for 6 h at 1×10^6DMEM-5% FCS with 64 μM of each AE101 series peptide or with PBS. The APC were then washed four times with ten volumes of DMEM-5% FCS, and were cocultured with T hybridoma cells and the indicated submaximal doses of antigenic peptides used in the simultaneous competition assays. The baseline T cell response was measured by culturing T hybridoma cells with antigenic peptide and PBS-pretreated APC.

[3] = test system: murine E^k MHC class II allele; assay: AE101 series peptide prepulse assay, E^k allele; format: cell-based; conditions: Table 35; AE101 series peptide prepulse 64 μM; antigenic peptide 0.4 μM; supernatant dilution 1:2
Method: as §1, §2

Substance | reduction in activity on substitution of 3-methionine by N-methyl leucine [1] | Relative Binding (HLA-DR1 molecules) | T cell response relative to baseline with PBS-pretreated APC (NONE = 1.0), E^d [2] | T cell response relative to baseline with PBS-pretreated APC (NONE = 1.0), E^k [3]
Ac-LR (mL) KLPK-NH2 [AE302] | 50-70% | – | – | –
Ac-LR L KLPK-NH2 (Ac-LRLKLPK-NH2; not fully specified; printed as Ac-LR L KLPK-NH2) [AE206] | – | −0.13 | 5.0 | 2.7
Ac-LRMK D PK-NH2 (Ac-LRMKDPK-NH2) [AE230] | – | – | 0.8 | 1.6
Ac-LRMK Y PK-NH2 (Ac-LRMKYPK-NH2; not fully specified; printed as Ac-LRMK Y PK-NH2) [AE235] | – | 0.15 | 15.6 | 2.1
Ac-LRMKLPK-NH2 [AE114] | – | – | 6.0 | 2.0
Ac-YRMK-NH2 [AE117] | – | – | 4.4 | 2.3
YRMKLPKSAKPVSQMR [AE101] | – | 0.31 | – | –
